Tests used:
Experiment in all cases: KINOMEscan competition binding
Conditions in all cases: compound 10.0 µM
MAPK13 (human) = MAPK13 (human) (UniProt O15264)
EPHA3 (human) = EPHA3 (human) (UniProt P29320)
PKMYT1 (human) = PKMYT1 (human) (UniProt Q99640)
FLT4 (human) = FLT4 (human) (UniProt P35916)
MARK2 (human) = MARK2 (human) (UniProt Q7KZI7)
TXK (human) = TXK (human) (UniProt P42681)
RPS6KA5 KD1 (human) = RPS6KA5 KD1 (human) (UniProt O75582)
ACVR1B (human) = ACVR1B (human) (UniProt P36896)
FES (human) = FES (human) (UniProt P07332)
RPS6KA1 KD1 (human) = RPS6KA1 KD1 (human) (UniProt Q15418)
ACVR2B (human) = ACVR2B (human) (UniProt Q13705)
ACVR2B (human), sequence (Q13705 whole entry, looked up): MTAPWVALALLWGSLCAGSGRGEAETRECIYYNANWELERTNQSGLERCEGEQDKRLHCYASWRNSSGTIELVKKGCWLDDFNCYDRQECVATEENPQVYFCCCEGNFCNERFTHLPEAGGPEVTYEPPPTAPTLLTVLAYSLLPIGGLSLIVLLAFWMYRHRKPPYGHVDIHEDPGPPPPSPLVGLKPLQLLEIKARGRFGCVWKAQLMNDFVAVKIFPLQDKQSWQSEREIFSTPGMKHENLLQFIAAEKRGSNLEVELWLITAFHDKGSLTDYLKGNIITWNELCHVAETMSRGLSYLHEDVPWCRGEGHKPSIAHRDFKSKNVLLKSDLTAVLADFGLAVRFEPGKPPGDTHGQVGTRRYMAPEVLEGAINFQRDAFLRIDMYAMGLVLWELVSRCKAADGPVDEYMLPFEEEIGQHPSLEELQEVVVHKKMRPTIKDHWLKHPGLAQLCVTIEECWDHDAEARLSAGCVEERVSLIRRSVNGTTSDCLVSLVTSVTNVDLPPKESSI

CDKL2 (human) = CDKL2 (human) (UniProt Q92772)
MYLK4 (human) = MYLK4 (human) (UniProt Q86YV6)
STK3 (human) = STK3 (human) (UniProt Q13188)
AKT1 (human) = AKT1 (human) (UniProt P31749)
AKT1 (human), sequence (P31749 whole entry, looked up): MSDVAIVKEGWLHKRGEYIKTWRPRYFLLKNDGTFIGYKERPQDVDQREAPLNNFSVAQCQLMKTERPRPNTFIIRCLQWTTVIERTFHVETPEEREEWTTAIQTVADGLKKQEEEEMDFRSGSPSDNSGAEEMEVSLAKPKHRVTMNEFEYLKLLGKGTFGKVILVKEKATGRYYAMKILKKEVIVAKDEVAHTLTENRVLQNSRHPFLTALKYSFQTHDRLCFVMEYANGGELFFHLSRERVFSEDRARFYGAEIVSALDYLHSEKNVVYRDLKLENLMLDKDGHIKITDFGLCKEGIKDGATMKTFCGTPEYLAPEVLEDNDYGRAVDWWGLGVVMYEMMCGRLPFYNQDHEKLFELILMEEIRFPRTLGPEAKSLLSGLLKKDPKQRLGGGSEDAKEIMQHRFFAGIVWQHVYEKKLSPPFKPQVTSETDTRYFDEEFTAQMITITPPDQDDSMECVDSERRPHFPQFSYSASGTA

DAPK3 (human) = DAPK3 (human) (UniProt O43293)
[1] = target: JAK3 JH1 catalytic (human) (UniProt P52333)
EIF2AK2 (human) = EIF2AK2 (human) (UniProt P19525)
PHKG2 (human) = PHKG2 (human) (UniProt P15735)
ACVRL1 (human) = ACVRL1 (human) (UniProt P37023)
[2] = target: JAK1 JH2 pseudokinase (human) (UniProt P23458)
CSNK1G3 (human) = CSNK1G3 (human) (UniProt Q9Y6M4)
STK17A (human) = STK17A (human) (UniProt Q9UEE5)
CDK18 (human) = CDK18 (human) (UniProt Q07002)
MAP3K11 (human) = MAP3K11 (human) (UniProt Q16584)
EPHB4 (human) = EPHB4 (human) (UniProt P54760)
SYK (human) = SYK (human) (UniProt P43405)
TYRO3 (human) = TYRO3 (human) (UniProt Q06418)
WEE2 (human) = WEE2 (human) (UniProt P0C1S8)
PIK3CD (human) = PIK3CD (human) (UniProt O00329)
MAP3K10 (human) = MAP3K10 (human) (UniProt Q02779)
MAP3K10 (human), sequence (Q02779 whole entry, looked up): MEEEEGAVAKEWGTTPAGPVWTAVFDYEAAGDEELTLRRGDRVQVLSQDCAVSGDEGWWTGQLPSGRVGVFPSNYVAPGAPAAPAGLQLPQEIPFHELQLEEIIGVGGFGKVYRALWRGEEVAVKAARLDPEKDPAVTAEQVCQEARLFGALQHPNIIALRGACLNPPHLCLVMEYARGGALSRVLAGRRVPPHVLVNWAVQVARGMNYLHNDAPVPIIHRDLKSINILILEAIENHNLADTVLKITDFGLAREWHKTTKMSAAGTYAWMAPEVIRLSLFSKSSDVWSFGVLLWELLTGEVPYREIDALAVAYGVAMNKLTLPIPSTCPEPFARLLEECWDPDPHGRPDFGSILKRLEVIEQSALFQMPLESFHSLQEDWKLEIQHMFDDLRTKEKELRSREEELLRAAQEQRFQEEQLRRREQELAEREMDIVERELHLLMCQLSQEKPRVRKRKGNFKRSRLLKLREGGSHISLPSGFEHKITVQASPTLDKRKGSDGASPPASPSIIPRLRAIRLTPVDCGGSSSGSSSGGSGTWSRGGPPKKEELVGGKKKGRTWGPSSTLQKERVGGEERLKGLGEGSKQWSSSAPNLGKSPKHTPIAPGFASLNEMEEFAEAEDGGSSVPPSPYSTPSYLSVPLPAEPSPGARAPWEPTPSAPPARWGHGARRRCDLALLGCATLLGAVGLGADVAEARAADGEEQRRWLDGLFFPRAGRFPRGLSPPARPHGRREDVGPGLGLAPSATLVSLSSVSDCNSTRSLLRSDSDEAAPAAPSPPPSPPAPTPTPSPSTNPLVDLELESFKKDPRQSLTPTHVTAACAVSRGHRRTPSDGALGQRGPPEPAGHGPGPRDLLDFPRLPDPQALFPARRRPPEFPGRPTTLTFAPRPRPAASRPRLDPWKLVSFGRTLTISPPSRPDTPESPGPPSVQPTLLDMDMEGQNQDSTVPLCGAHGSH

STK32C (human) = STK32C (human) (UniProt Q86UX6)
MYO3A (human) = MYO3A (human) (UniProt Q8NEV4)
DYRK1B (human) = DYRK1B (human) (UniProt Q9Y463)
DDR2 (human) = DDR2 (human) (UniProt Q16832)
DDR2 (human), sequence (Q16832 whole entry, looked up): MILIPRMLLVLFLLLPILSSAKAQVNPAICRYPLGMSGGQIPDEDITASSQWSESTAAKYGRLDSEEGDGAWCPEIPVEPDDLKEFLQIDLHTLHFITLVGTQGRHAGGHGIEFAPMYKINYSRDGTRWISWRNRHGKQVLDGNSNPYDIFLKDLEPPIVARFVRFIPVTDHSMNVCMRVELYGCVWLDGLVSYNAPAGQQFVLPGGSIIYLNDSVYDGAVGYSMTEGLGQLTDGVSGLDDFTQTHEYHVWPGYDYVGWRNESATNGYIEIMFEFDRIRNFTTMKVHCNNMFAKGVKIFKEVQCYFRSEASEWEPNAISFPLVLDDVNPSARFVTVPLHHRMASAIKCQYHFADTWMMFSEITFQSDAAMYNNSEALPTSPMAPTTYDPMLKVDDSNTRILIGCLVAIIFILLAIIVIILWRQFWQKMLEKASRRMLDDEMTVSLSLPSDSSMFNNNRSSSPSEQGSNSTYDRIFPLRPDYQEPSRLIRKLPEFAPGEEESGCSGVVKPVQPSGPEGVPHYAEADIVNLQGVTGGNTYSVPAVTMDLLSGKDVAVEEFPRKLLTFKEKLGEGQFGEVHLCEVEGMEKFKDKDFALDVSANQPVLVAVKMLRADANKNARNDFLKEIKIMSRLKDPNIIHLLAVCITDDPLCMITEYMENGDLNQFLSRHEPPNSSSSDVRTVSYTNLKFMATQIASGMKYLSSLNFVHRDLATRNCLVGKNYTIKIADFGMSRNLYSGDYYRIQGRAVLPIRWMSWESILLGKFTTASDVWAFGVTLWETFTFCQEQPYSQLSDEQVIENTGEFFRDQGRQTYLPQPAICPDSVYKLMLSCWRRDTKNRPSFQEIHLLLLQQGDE

AURKC (human) = AURKC (human) (UniProt Q9UQB9)
AURKC (human), sequence (Q9UQB9 whole entry, looked up): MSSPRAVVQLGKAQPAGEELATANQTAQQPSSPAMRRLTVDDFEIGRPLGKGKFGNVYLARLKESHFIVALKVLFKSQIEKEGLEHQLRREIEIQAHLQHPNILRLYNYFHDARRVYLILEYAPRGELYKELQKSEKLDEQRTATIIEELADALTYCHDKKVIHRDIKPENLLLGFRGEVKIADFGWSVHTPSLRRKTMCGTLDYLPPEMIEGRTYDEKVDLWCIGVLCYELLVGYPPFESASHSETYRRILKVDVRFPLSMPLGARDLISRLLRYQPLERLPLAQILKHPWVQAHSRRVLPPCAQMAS

PAK4 (human) = PAK4 (human) (UniProt O96013)
PAK4 (human), sequence (O96013 whole entry, looked up): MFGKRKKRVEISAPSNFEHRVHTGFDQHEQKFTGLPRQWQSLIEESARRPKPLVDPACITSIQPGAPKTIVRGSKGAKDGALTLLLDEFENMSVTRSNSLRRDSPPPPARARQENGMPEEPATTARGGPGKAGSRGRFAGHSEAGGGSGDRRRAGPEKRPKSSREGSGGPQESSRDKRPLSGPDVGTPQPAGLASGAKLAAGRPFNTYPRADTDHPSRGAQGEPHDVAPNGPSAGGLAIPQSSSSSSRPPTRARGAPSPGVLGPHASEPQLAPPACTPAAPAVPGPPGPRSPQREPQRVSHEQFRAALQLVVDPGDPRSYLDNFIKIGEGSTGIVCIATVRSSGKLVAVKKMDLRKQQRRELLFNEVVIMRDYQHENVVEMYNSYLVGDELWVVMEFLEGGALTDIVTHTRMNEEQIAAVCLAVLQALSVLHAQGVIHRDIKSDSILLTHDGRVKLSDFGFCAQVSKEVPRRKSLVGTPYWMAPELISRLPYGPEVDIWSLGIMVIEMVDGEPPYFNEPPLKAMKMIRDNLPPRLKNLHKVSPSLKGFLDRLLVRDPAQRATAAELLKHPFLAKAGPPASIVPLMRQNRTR

NLK (human) = NLK (human) (UniProt Q9UBE8)
NLK (human), sequence (Q9UBE8 whole entry, looked up): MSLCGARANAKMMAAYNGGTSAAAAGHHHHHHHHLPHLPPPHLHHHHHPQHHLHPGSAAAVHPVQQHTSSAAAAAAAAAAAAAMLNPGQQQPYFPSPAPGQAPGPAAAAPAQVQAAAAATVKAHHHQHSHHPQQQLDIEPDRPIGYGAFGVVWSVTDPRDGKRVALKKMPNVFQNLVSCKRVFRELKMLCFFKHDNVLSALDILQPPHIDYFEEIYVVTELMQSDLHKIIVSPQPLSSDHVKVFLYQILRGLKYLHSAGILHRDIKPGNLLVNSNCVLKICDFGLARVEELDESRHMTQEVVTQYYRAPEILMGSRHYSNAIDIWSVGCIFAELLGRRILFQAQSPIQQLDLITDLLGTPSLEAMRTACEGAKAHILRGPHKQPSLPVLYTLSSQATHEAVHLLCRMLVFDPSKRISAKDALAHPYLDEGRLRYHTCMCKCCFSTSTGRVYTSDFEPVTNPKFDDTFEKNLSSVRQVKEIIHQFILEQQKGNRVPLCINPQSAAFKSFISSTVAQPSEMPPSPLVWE

MKNK1 (human) = MKNK1 (human) (UniProt Q9BUB5)
AURKA (human) = AURKA (human) (UniProt O14965)

TXK (human), sequence (P42681 whole entry, looked up): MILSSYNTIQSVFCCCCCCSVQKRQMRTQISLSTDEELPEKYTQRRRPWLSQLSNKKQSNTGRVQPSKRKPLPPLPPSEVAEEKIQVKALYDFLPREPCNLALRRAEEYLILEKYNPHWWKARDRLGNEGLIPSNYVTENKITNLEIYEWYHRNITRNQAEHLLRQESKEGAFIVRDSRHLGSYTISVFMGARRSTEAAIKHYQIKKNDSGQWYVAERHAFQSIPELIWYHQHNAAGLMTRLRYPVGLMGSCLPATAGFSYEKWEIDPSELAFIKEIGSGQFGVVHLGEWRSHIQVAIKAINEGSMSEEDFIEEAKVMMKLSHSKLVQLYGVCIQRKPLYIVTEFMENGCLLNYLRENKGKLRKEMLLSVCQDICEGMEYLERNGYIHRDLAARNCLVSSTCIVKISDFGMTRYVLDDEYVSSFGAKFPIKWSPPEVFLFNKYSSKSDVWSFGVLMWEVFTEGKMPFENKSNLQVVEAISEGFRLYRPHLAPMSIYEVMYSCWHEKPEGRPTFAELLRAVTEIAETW

| Compound | kinase still bound, per cent of control (MAPK13 (human)) [%] | kinase still bound, per cent of control (EPHA3 (human)) [%] | kinase still bound, per cent of control (PKMYT1 (human)) [%] | kinase still bound, per cent of control (FLT4 (human)) [%] | kinase still bound, per cent of control (MARK2 (human)) [%] | kinase still bound, per cent of control (TXK (human)) [%] | kinase still bound, per cent of control (RPS6KA5 KD1 (human)) [%] | kinase still bound, per cent of control (ACVR1B (human)) [%] | kinase still bound, per cent of control (FES (human)) [%] | kinase still bound, per cent of control (RPS6KA1 KD1 (human)) [%] | kinase still bound, per cent of control (ACVR2B (human)) [%] | kinase still bound, per cent of control (CDKL2 (human)) [%] | kinase still bound, per cent of control (MYLK4 (human)) [%] | kinase still bound, per cent of control (STK3 (human)) [%] | kinase still bound, per cent of control (AKT1 (human)) [%] | kinase still bound, per cent of control (DAPK3 (human)) [%] | kinase still bound, per cent of control [1] [%] | kinase still bound, per cent of control (EIF2AK2 (human)) [%] | kinase still bound, per cent of control (PHKG2 (human)) [%] | kinase still bound, per cent of control (ACVRL1 (human)) [%] | also measured |
| --- | --- | --- | --- | --- | --- | --- | --- | --- | --- | --- | --- | --- | --- | --- | --- | --- | --- | --- | --- | --- | --- |
| O=C1Nc2ccc(I)cc2/C1=C/c1cc(Br)c(O)c(Br)c1 | 100 | 66 | 79 | 100 | 44 | 100 | 96 | 33 | 95 | 42 | 83 | 82 | 14 | 3.3 | 100 | 2.6 | 14 | 75 | 92 | 100 | kinase still bound, per cent of control [2]: 0.55%; kinase still bound, per cent of control (CSNK1G3 (human)): 94%; kinase still bound, per cent of control (STK17A (human)): 2.5%; kinase still bound, per cent of control (CDK18 (human)): 100%; kinase still bound, per cent of control (MAP3K11 (human)): 38%; kinase still bound, per cent of control (EPHB4 (human)): 100%; kinase still bound, per cent of control (SYK (human)): 78%; kinase still bound, per cent of control (TYRO3 (human)): 88%; kinase still bound, per cent of control (WEE2 (human)): 94%; kinase still bound, per cent of control (PIK3CD (human)): 81%; kinase still bound, per cent of control (MAP3K10 (human)): 93%; kinase still bound, per cent of control (STK32C (human)): 98%; kinase still bound, per cent of control (MYO3A (human)): 2.5%; kinase still bound, per cent of control (DYRK1B (human)): 41%; kinase still bound, per cent of control (DDR2 (human)): 73%; kinase still bound, per cent of control (AURKC (human)): 71%; kinase still bound, per cent of control (PAK4 (human)): 82%; kinase still bound, per cent of control (NLK (human)): 56%; kinase still bound, per cent of control (MKNK1 (human)): 83%; kinase still bound, per cent of control (AURKA (human)): 65% |
| N#Cc1c(NC(=O)c2cccc3ccccc23)sc2c1CCCC2 | 46 | 100 | 77 | 91 | 100 | 100 | 85 | 100 | 100 | 100 | 67 | 97 | 98 | 91 | 94 | 88 | 98 | 100 | 83 | 100 | kinase still bound, per cent of control [2]: 90%; kinase still bound, per cent of control (CSNK1G3 (human)): 68%; kinase still bound, per cent of control (STK17A (human)): 100%; kinase still bound, per cent of control (CDK18 (human)): 95%; kinase still bound, per cent of control (MAP3K11 (human)): 98%; kinase still bound, per cent of control (EPHB4 (human)): 100%; kinase still bound, per cent of control (SYK (human)): 99%; kinase still bound, per cent of control (TYRO3 (human)): 76%; kinase still bound, per cent of control (WEE2 (human)): 70%; kinase still bound, per cent of control (PIK3CD (human)): 100%; kinase still bound, per cent of control (MAP3K10 (human)): 100%; kinase still bound, per cent of control (STK32C (human)): 97%; kinase still bound, per cent of control (MYO3A (human)): 42%; kinase still bound, per cent of control (DYRK1B (human)): 89%; kinase still bound, per cent of control (DDR2 (human)): 100%; kinase still bound, per cent of control (AURKC (human)): 87%; kinase still bound, per cent of control (PAK4 (human)): 100%; kinase still bound, per cent of control (NLK (human)): 65%; kinase still bound, per cent of control (MKNK1 (human)): 100%; kinase still bound, per cent of control (AURKA (human)): 100% |
| CCN1CCN(Cc2ccc(Nc3ncc4c(n3)N(C)c3ccccc3C(=O)N4C)cc2C(F)(F)F)CC1 | 100 | 100 | 100 | 100 | 40 | 34 | 100 | 100 | 100 | 100 | 29 | 80 | 99 | 8.1 | 100 | 79 | 9.8 | 95 | 47 | 100 | kinase still bound, per cent of control [2]: 0.1%; kinase still bound, per cent of control (CSNK1G3 (human)): 5.4%; kinase still bound, per cent of control (STK17A (human)): 100%; kinase still bound, per cent of control (CDK18 (human)): 97%; kinase still bound, per cent of control (MAP3K11 (human)): 84%; kinase still bound, per cent of control (EPHB4 (human)): 93%; kinase still bound, per cent of control (SYK (human)): 78%; kinase still bound, per cent of control (TYRO3 (human)): 92%; kinase still bound, per cent of control (WEE2 (human)): 64%; kinase still bound, per cent of control (PIK3CD (human)): 0%; kinase still bound, per cent of control (MAP3K10 (human)): 100%; kinase still bound, per cent of control (STK32C (human)): 100%; kinase still bound, per cent of control (MYO3A (human)): 88%; kinase still bound, per cent of control (DYRK1B (human)): 68%; kinase still bound, per cent of control (DDR2 (human)): 50%; kinase still bound, per cent of control (AURKC (human)): 8.7%; kinase still bound, per cent of control (PAK4 (human)): 80%; kinase still bound, per cent of control (NLK (human)): 56%; kinase still bound, per cent of control (MKNK1 (human)): 100%; kinase still bound, per cent of control (AURKA (human)): 0.4% |

From the kinase profiling compilation of Christmann-Franck et al. (2016)
